Data on 17 molecules can be found in ChEMBL document CHEMBL1914414, “Selective cholinesterase inhibition by lanostane triterpenes from fruiting bodies of Ganoderma lucidum” (Bioorg Med Chem Lett, 2011).

The target in one test is Acetylcholinesterase (Homo sapiens, UniProt P22303). The experiment in a line: Inhibition of AChE assessed as hydrolysis of acetylcholine preincubated for 15 mins measured after 15 mins by colorimetric Ellman assay. For orientation: DTNB colorimetry detects thiols as they appear.
A further test deals with Cholinesterase (Homo sapiens, UniProt P06276). Description: Inhibition of BChE assessed as hydrolysis of butrylcholine preincubated for 15 mins measured after 15 mins by colorimetric Ellman assay.
Cholinesterase, sequence (P06276 whole entry): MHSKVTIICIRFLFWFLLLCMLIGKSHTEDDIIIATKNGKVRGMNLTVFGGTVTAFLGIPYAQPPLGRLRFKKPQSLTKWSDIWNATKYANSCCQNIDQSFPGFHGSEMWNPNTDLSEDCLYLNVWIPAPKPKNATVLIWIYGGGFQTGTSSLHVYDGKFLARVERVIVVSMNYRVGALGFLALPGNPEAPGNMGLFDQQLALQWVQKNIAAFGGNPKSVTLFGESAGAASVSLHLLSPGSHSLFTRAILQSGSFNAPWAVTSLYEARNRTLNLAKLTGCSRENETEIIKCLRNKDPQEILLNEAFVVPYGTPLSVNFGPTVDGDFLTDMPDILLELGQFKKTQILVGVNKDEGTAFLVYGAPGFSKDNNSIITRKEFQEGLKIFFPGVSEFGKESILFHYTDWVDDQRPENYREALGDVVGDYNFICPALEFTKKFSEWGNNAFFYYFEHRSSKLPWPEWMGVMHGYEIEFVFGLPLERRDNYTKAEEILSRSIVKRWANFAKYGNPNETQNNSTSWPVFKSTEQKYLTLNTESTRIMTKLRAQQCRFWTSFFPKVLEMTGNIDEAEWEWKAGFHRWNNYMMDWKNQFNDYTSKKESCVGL

Acetylcholinesterase, sequence (P22303 whole entry): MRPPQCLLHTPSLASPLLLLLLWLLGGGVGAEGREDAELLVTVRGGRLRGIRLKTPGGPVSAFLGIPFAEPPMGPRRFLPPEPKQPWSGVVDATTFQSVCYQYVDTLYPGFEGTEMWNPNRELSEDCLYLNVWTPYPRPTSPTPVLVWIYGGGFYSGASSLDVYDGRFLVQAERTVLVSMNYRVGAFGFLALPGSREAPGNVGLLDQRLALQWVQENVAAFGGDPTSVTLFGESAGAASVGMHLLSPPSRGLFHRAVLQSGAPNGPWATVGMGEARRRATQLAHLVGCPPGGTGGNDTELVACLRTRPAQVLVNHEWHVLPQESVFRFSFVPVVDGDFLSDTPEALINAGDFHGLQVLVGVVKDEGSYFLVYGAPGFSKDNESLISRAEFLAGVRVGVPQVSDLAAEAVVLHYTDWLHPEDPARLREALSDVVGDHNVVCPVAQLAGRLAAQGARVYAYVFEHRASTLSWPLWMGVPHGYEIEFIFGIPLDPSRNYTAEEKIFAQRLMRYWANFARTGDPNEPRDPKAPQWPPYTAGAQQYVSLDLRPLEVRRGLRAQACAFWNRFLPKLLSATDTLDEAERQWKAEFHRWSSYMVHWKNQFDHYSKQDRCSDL

For the molecule `CCCCOC(=O)C(C)CC(=O)C[C@@H](C)[C@H]1CC(=O)[C@@]2(C)C3=C(C(=O)[C@@H](OC(C)=O)[C@]12C)[C@@]1(C)CC[C@H](O)C(C)(C)[C@@H]1CC3=O` (some centres undefined), the half-inhibitory concentration (IC50) on Acetylcholinesterase was 9.4 µM; on Cholinesterase, more than 200 µM.

`CCCCOC(=O)CC[C@@H](C)[C@H]1CC[C@@]2(C)C3=C(C(=O)C[C@]12C)[C@@]1(C)CC[C@H](O)C(C)(C)[C@@H]1C[C@@H]3O`: the values for the IC50 at Acetylcholinesterase and at Cholinesterase were 11.6 µM and more than 200 µM, respectively.

Consider `CCCCOC(=O)CC[C@@H](C)[C@H]1CC[C@@]2(C)C3=C(C(=O)C[C@]12C)[C@@]1(C)CCC(=O)C(C)(C)[C@@H]1C[C@@H]3O`, for which the half-inhibitory concentration (IC50) is 12.3 µM on Acetylcholinesterase and more than 200 µM on Cholinesterase.

As for `CC(CC(=O)C[C@@H](C)[C@H]1CC(=O)[C@@]2(C)C3=C(C(=O)C[C@]12C)[C@@]1(C)CC[C@H](O)C(C)(C)[C@@H]1C[C@@H]3O)C(=O)O` (some centres undefined) [GANODERIC ACID B], the values for the half-maximal inhibitory concentration (IC50) at Acetylcholinesterase and on Cholinesterase were 22.6 µM and more than 200 µM, respectively.

As for `C[C@H](CC(=O)C[C@@H](C)[C@H]1CC(=O)[C@@]2(C)C3=C(C(=O)C[C@]12C)[C@@]1(C)CCC(=O)C(C)(C)[C@@H]1CC3=O)C(=O)O` [GANODERIC ACID E], the concentration for half-maximal inhibition (IC50) on Acetylcholinesterase is 18.4 µM; on Cholinesterase, more than 200 µM.

For the molecule `C/C(=C\CC[C@@H](C)[C@H]1CC[C@@]2(C)C3=CC[C@H]4C(C)(C)[C@@H](O)CC[C@]4(C)C3=CC[C@]12C)C(=O)O` [GANODERIC ACID Y], the IC50 on Acetylcholinesterase was 21.1 µM; on Cholinesterase it was more than 200 µM.

`C[C@H](CCC=C(CO)CO)[C@H]1CC[C@@]2(C)C3=CC[C@H]4C(C)(C)C(=O)CC[C@]4(C)C3=CC[C@]12C` [GANODERIOL F]: the results for the IC50 at Acetylcholinesterase and on Cholinesterase were 21.8 µM and more than 200 µM, respectively.

On to `C[C@H](CC[C@@H](O)C(C)(C)O)[C@H]1CC[C@@]2(C)C3=CC[C@H]4C(C)(C)C(=O)CC[C@]4(C)C3=CC[C@]12C` [GANODERMANONDIOL], for which the half-inhibitory concentration (IC50) at Acetylcholinesterase was 25.1 µM; on Cholinesterase, more than 200 µM.

For the molecule `C[C@H](CC[C@H](O)[C@](C)(O)CO)[C@H]1CC[C@@]2(C)C3=CC[C@H]4C(C)(C)C(=O)CC[C@]4(C)C3=CC[C@]12C` [GANODERMANONTRIOL], the IC50 was 22.3 µM at Acetylcholinesterase and more than 200 µM on Cholinesterase.

`C/C(=C\CC[C@@H](C)[C@H]1CC[C@@]2(C)C3=CC[C@H]4C(C)(C)[C@@H](O)CC[C@]4(C)C3=CC[C@]12C)CO` [GANODEROL B]: the 50% inhibitory concentration (IC50) is 26.8 µM on Acetylcholinesterase and more than 200 µM at Cholinesterase.

Consider `CC(CC(=O)C[C@@H](C)[C@H]1C[C@H](O)[C@@]2(C)C3=C(C(=O)C[C@]12C)[C@@]1(C)CCC(=O)C(C)(C)[C@@H]1CC3)C(=O)O` (some centres undefined) [GANOLUCIDIC ACID A], for which the half-inhibitory concentration (IC50) on Acetylcholinesterase is 23 µM; at Cholinesterase it was more than 200 µM.

`C/C(=C\CC[C@@H](C)[C@H]1CC[C@@]2(C)C3=C(CC[C@]12C)[C@@]1(C)CC[C@H](O)C(C)(C)[C@@H]1CC3=O)CO` [LUCIDADIOL]: the IC50 at Acetylcholinesterase stood at 31 µM; on Cholinesterase, 156 µM.

With `C[C@H](CCC(=O)O)[C@H]1CC(=O)[C@@]2(C)C3=C(C(=O)C[C@]12C)[C@@]1(C)CCC(=O)C(C)(C)[C@@H]1C[C@@H]3O` [LUCIDENIC ACID A], the results for the half-maximal inhibitory concentration (IC50) on Acetylcholinesterase and at Cholinesterase were 24 µM and more than 200 µM, respectively.

Turning to `C[C@H](CCC(=O)O)[C@H]1CC(=O)[C@@]2(C)C3=C(C(=O)C[C@]12C)[C@@]1(C)CC[C@H](O)C(C)(C)[C@@H]1C[C@@H]3O` [LUCIDENIC ACID N], the 50% inhibitory concentration (IC50) was determined as 25.9 µM on Acetylcholinesterase and 188 µM on Cholinesterase.

Regarding `COC(=O)[C@H](C)CC(=O)C[C@@H](C)[C@H]1C[C@@H]2OC(C)(C)O[C@H]3C[C@H]4C(C)(C)C(=O)CC[C@]4(C)C4=C3[C@@]2(C)[C@]1(C)CC4=O` [METHYL GANODERATE A ACETONIDE], the results for the IC50 on Acetylcholinesterase and on Cholinesterase were 18.4 µM and more than 200 µM, respectively.

Regarding `COC(=O)C(C)CC(=O)C[C@@H](C)[C@H]1C[C@H](O)[C@@]2(C)C3=C(C(=O)C[C@]12C)[C@@]1(C)CCC(=O)C(C)(C)[C@@H]1C[C@@H]3O` (some centres undefined) [METHYL GANODERATE A], the IC50 was 30.3 µM on Acetylcholinesterase and more than 200 µM on Cholinesterase.

Take `COC(=O)CC[C@@H](C)[C@H]1CC(=O)[C@@]2(C)C3=C(C(=O)[C@@H](OC(C)=O)[C@]12C)[C@@]1(C)CC[C@H](O)C(C)(C)[C@@H]1CC3=O` [METHYL LUCIDENATE E2]: the half-inhibitory concentration (IC50) is 17.1 µM on Acetylcholinesterase and more than 200 µM at Cholinesterase.

In general, IC50 refers to the point on the concentration scale where inhibition reaches its midpoint.
